Test results from ChEMBL document CHEMBL4334528, “Structure, Biosynthesis, and Bioactivity of Photoditritide from Photorhabdus temperata Meg1” (J Nat Prod, 2019).
Values after ≈ are worked out from the molar mass of the structure shown.

Columns and labels:
Escherichia coli = assay: Antibacterial activity against Escherichia coli OP50 assessed as bacterial growth inhibition by CLSI protocol based broth microdilution assay; assay type: functional
L6 = assay: Cytotoxicity against rat L6 cells measured after 72 hrs by alamar blue dye based fluorimetry analysis; assay type: cell-based; settings: L6, 72 h
Trypanosoma cruzi = assay: Antitrypanosomal activity against Trypanosoma cruzi Tulahuen C4 infected in rat L6 cells measured after 96 hrs by inverted microscopy analysis; assay type: functional, organism-based; settings: Tulahuen C4, L6, 96 h
Leishmania donovani = assay: Antileishmanial activity against Leishmania donovani MHOM/ET/67/L82 measured after 72 hrs by alamar blue dye based fluorimetry analysis; assay type: functional, organism-based; settings: MHOM/ET/67/L82, 72 h
Clavispora lusitaniae = assay: Antifungal activity against Candida lusitaniae DSM 70102 assessed as fungal growth inhibition by EUCAST method; assay type: functional
Plasmodium falciparum = assay: Antiplasmodial activity against Plasmodium falciparum NF54 measured after 24 hrs in presence of [3H] hypoxanthine by liquid scintillation counter analysis; assay type: functional, organism-based
[1] = test system: Trypanosoma brucei rhodesiense; assay: Antitrypanosomal activity against Trypanosoma brucei rhodesiense STI B900 measured after 72 hrs by alamar blue dye based fluorimetry analysis; assay type: functional, organism-based; settings: STI B900, 72 h
Micrococcus luteus = assay: Antibacterial activity against Micrococcus luteus assessed as bacterial growth inhibition by CLSI protocol based broth microdilution assay; assay type: functional

Structure (SMILES) | MIC (Escherichia coli) [µM] | IC50 (L6) [µM] | MIC (Clavispora lusitaniae) [µM] | MIC (Micrococcus luteus) [µM] | other results
O=C(N[C@H](CO)[C@H](O)c1ccc([N+](=O)[O-])cc1)C(Cl)Cl [CHLORAMPHENICOL] | 0.6 (≈ 0.194 µg/mL) |  |  |  | 
COc1cc([C@@H]2c3cc4c(cc3[C@H](O)[C@H]3COC(=O)[C@H]23)OCO4)cc(OC)c1OC [PODOFILOX] |  | 0.007 |  |  | 
N=C(N)NCCCC[C@H]1NC(=O)[C@H](Cc2c[nH]c3ccccc23)NC(=O)[C@H](Cc2ccc(O)cc2)NC(=O)[C@@H](Cc2c[nH]c3ccccc23)NC(=O)[C@@H](Cc2ccc(O)cc2)NC(=O)[C@@H](CCCCNC(=N)N)NC1=O | 24 (≈ 24.9 µg/mL) | 83 | > 96 | 3 (≈ 3.12 µg/mL) | IC50 (Trypanosoma cruzi): 71 µM; IC50 (Leishmania donovani): > 100 µM; IC50 (Plasmodium falciparum): 27 µM; IC50 [1]: 13 µM
CC1(C)S[C@@H]2[C@H](NC(=O)[C@H](N)c3ccccc3)C(=O)N2[C@H]1C(=O)O [AMPICILLIN] |  |  |  | 4.2 (≈ 1.47 µg/mL) | 
C[C@@H]1[C@H](O)[C@@H](C)/C=C/C=C/C=C/C=C/C=C/C=C/C=C/[C@H](O[C@@H]2O[C@H](C)[C@@H](O)[C@H](N)[C@@H]2O)C[C@@H]2O[C@](O)(C[C@@H](O)C[C@@H](O)[C@H](O)CC[C@@H](O)C[C@@H](O)CC(=O)O[C@H]1C)C[C@H](O)[C@H]2C(=O)O [AMPHOTERICIN B] |  |  | 0.42 (≈ 0.388 µg/mL) |  | 
